Test results taken from publication PMC10693528, “A high-throughput metabolomics in vitro platform for the characterization of hepatotoxicity” (Cell Biology and Toxicology, 2023).

Tested on: HepG2 cells
Test: LC-MS/MS targeted intracellular metabolomics
Type: cell-based, human
Details: Suppl Fig 11, C3, 48 h
Summary of the method: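 Metabolites extracted in-plate from HepG2 cells with 80% isopropanol and analysed by RP and HILIC LC-MS/MS in positive and negative mode. Data normalised to lyophilised untreated HepG2 reference samples and to each sample's median across 221 metabolites. Treated versus control compared by Welch t test on log-transformed data.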

## CC(=O)N1CCN(c2ccc(OCC3COC(Cn4ccnc4)(c4ccc(Cl)cc4Cl)O3)cc2)CC1 (centres unmarked) [Ketoconazole]
  2'-Deoxycytidine level vs controls: 0.76
  5-Hydroxytryptophan level vs controls: 0.87
  Carnitine level vs controls: 0.77
  Ceramide (d16:1.C24:0) level vs controls: 0.48
  Ceramide (d17:1.C24:0) level vs controls: 0.40
  Ceramide (d18:1.C16:0) level vs controls: 0.74
  Ceramide (d18:1.C18:0) level vs controls: 0.58
  Ceramide (d18:1.C20:0) level vs controls: 0.38
  Ceramide (d18:1.C21:0) level vs controls: 0.64
  Ceramide (d18:1.C22:0) level vs controls: 0.54
  Ceramide (d18:1.C23:0) level vs controls: 0.50
  Ceramide (d18:1.C24:0) level vs controls: 0.60
  Ceramide (d18:1.C24:1) level vs controls: 0.70
  Ceramide (d18:2.C16:0) level vs controls: 0.55
  Ceramide (d18:2.C18:0) level vs controls: 0.38
  Ceramide (d18:2.C22:0) level vs controls: 0.39
  Ceramide (d18:2.C23:0) level vs controls: 0.49
  Ceramide (d18:2.C24:0) level vs controls: 0.48
  Ceramide (d18:2.C24:1) level vs controls: 0.66
  Ceramide (d18:2.C24:2) level vs controls: 0.36
  Cholesterylester (C20:2) level vs controls: 0.58
  Choline plasmalogen (C36:4) level vs controls: 1.23
  Choline plasmalogen (C36:5) level vs controls: 1.44
  Coenzyme Q10 level vs controls: 0.65
  Glutamate level vs controls: 0.92
  Glutathione (GSH) level vs controls: 0.90
  Hexadecanoylcarnitine level vs controls: 1.97
  Hexadecenoylcarnitine level vs controls: 3.61
  Isopentenyl pyrophosphate (IPP) level vs controls: 0.50
  Lysophosphatidylcholine (C14:0) level vs controls: 1.21
  Lysophosphatidylcholine (C16:0) level vs controls: 1.96
  Lysophosphatidylcholine (C16:1) level vs controls: 2.67
  Lysophosphatidylcholine (C20:0) level vs controls: 1.34
  Lysophosphatidylcholine (C20:1) level vs controls: 1.07
  Lysophosphatidylcholine (C20:4) level vs controls: 6.43
  Lysophosphatidylcholine (C22:0) level vs controls: 1.53
  Lysophosphatidylcholine (C24:1) level vs controls: 2.21
  Lysophosphatidylethanolamine (C16:0) level vs controls: 0.82
  Lysophosphatidylethanolamine (C18:0) level vs controls: 1.22
  Lysophosphatidylethanolamine (C20:4) level vs controls: 4.71
  Lysophosphatidylethanolamine (C22:6) level vs controls: 4.79
  N-Acetylaspartate level vs controls: 0.69
  N-Acetylserine level vs controls: 0.84
  Octadecenoylcarnitine level vs controls: 3.35
  Pantothenic acid level vs controls: 0.85
  Phosphatidylcholine (C32:0) level vs controls: 0.81
  Phosphatidylcholine (C34:0) level vs controls: 0.81
  Phosphatidylcholine (C34:1) level vs controls: 0.79
  Phosphatidylcholine (C34:2) level vs controls: 0.89
  Phosphatidylcholine (C34:3) level vs controls: 1.19
  Phosphatidylcholine (C36:1) level vs controls: 0.77
  Phosphatidylcholine (C36:2) level vs controls: 0.64
  Phosphatidylcholine (C36:3) level vs controls: 0.89
  Phosphatidylcholine (C36:4) level vs controls: 0.67
  Phosphatidylcholine (C36:5) level vs controls: 0.66
  Phosphatidylcholine (C38:4) level vs controls: 1.06
  Phosphatidylcholine (C38:6) level vs controls: 0.74
  Phosphatidylcholine (C40:6) level vs controls: 1.10
  Phosphatidylcholine (C40:7) level vs controls: 1.16
  Phosphatidylcholine (C40:8) level vs controls: 1.11
  Phosphatidylethanolamine (C32:0) level vs controls: 0.86
  Phosphatidylethanolamine (C34:0) level vs controls: 0.73
  Phosphatidylethanolamine (C34:1) level vs controls: 0.82
  Phosphatidylethanolamine (C36:0) level vs controls: 0.70
  Phosphatidylethanolamine (C36:1) level vs controls: 0.78
  Phosphatidylethanolamine (C36:2) level vs controls: 0.93
  Phosphatidylethanolamine (C36:4) level vs controls: 0.96
  Phosphatidylethanolamine (C38:3) level vs controls: 0.90
  Phosphatidylethanolamine (C38:4) level vs controls: 1.10
  Phosphatidylethanolamine (C38:5) level vs controls: 1.10
  Phosphatidylethanolamine (C38:6) level vs controls: 0.86
  Phosphatidylethanolamine (C40:7) level vs controls: 1.09
  Phosphocholine level vs controls: 0.82
  Pipecolic acid level vs controls: 0.86
  Proline level vs controls: 0.79
  Pyridoxal level vs controls: 0.82
  S-Adenosylhomocysteine level vs controls: 0.69
  Sphingomyelin (d32:1) level vs controls: 1.49
  Sphingomyelin (d32:2) level vs controls: 1.28
  Sphingomyelin (d33:1) level vs controls: 1.18
  Sphingomyelin (d34:0) level vs controls: 2.87
  Sphingomyelin (d34:2) level vs controls: 1.31
  Sphingomyelin (d35:1) level vs controls: 1.86
  Sphingomyelin (d35:2) level vs controls: 1.71
  Sphingomyelin (d36:1) level vs controls: 1.62
  Sphingomyelin (d36:2) level vs controls: 1.45
  Sphingomyelin (d36:3) level vs controls: 1.48
  Sphingomyelin (d37:1) level vs controls: 1.49
  Sphingomyelin (d38:1) level vs controls: 1.42
  Sphingomyelin (d38:2) level vs controls: 1.21
  Sphingomyelin (d39:1) level vs controls: 1.79
  Sphingomyelin (d40:1) level vs controls: 1.85
  Sphingomyelin (d40:2) level vs controls: 1.67
  Sphingomyelin (d41:1) level vs controls: 1.75
  Sphingomyelin (d41:2) level vs controls: 1.88
  Sphingomyelin (d42:1) level vs controls: 1.54
  Sphingomyelin (d42:2) level vs controls: 1.83
  Taurine level vs controls: 1.32
  Tetradecanoylcarnitine level vs controls: 2.20
  Threonine level vs controls: 0.85
  Triacylglycerol (C30:0.C18:1) level vs controls: 0.61
  Triacylglycerol (C32:0.C16:0) level vs controls: 0.23
  Triacylglycerol (C32:0.C16:1) level vs controls: 0.51
  Triacylglycerol (C34:0.C16:0) level vs controls: 0.16
  Triacylglycerol (C34:0.C17:0) level vs controls: 0.34
  Triacylglycerol (C34:0.C18:0) level vs controls: 0.14
  Triacylglycerol (C34:0.C18:1) level vs controls: 0.31
  Triacylglycerol (C34:1.C16:0) level vs controls: 0.44
  Triacylglycerol (C34:1.C18:1) level vs controls: 0.83
  Triacylglycerol (C34:1.C18:3) level vs controls: 1.33
  Triacylglycerol (C34:2.C18:0) level vs controls: 0.68
  Triacylglycerol (C34:2.C18:1) level vs controls: 1.31
  Triacylglycerol (C36:1.C18:0) level vs controls: 0.27
  Triacylglycerol (C36:1.C18:1) level vs controls: 0.61
  Triacylglycerol (C36:2.C18:1) level vs controls: 1.14
  Triacylglycerol (C36:3.C18:1) level vs controls: 1.57
  Triacylglycerol (C36:3.C18:2) level vs controls: 2.03
  Triacylglycerol (C36:4.C16:0) level vs controls: 1.15
  Triacylglycerol (C36:4.C18:0) level vs controls: 1.19
  myo-Inositol-2-phosphate level vs controls: 0.50
First of two lines with this name
  Sphingomyelin (d34:1) level vs controls: 1.40
Second of two lines with this name
  Sphingomyelin (d34:1) level vs controls: 1.16
